The experiment concerns the target 60S ribosomal protein L19-A (Saccharomyces cerevisiae (strain ATCC 204508 / S288c), UniProt P0CX82). The experiment in a line: TOR pathway reporter RPL19A-GFP modulators – cell-based, cherry pick 3, SAR, flow cytometry GFP, multiplex, dose response (AID 488814). The settings on record: inactive by the depositor's call. On the technique in general: Flow cytometry measures light scatter and fluorescence of single cells or particles in a stream.

pEC50: −log10 of the molar value.

60S ribosomal protein L19-A, sequence (P0CX82 whole entry): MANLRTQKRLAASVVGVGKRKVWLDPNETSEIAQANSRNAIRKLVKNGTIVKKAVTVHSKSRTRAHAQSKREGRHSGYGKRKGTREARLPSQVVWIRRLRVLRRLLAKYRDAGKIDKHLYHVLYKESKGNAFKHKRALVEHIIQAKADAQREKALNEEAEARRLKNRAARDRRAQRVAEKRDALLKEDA

As to `CCOC(=O)CS(=O)(=O)c1nc(-c2ccccc2)cc(C(F)(F)F)n1` [2-[4-phenyl-6-(trifluoromethyl)pyrimidin-2-yl]sulfonylacetic acid ethyl ester], the pEC50 (usually the EC50 on a negative log10 scale, so that one unit is a factor of ten) was 4.25. For `Cc1ccc(C(=O)Nc2nc(-c3ccccn3)cs2)o1` [5-methyl-N-[4-(2-pyridinyl)-2-thiazolyl]-2-furancarboxamide], the negative-log EC50 (pEC50) is 4.42.

Values taken from BindingDB's records for doi:10.7270/Q2H70D87 (Nmmlsc, 2011).
